{"source": "patent US20100256230A1", "about": "“1-BUTANE ACID DERIVATIVES, PHARMACEUTICAL COMPOSITIONS CONTAINING SAID DERIVATIVES AND THE USE THEREOF” (SCHEBO BIOTECH AG, priority 2001, published 2010)", "key": {"Novikoff hepatoma cells": {"tested_on": "Novikoff hepatoma cells", "test": "Proliferation inhibition of Novikoff hepatoma cells (cell count after four days of cultivation)", "assay_type": "cell-based", "details": "Novikoff hepatoma cells, 100,000 cells seeded per 25 cm2 bottle, counted after four days of cultivation, compared to control without compound; FIGS. 1 and 2", "protocol": "The cell density was measured after four days of cultivation.\nThe cell density was measured after 4 days of cultivation.\nThe Novikoff hepatoma cells utilized in this example were obtained from the tumor bank of the Deutsches Krebsforschungszentrum, Heidelberg (Cancer Research 1951, 17, 1010). 100,000 cells each are seeded per 25 cm^2 cultivation bottle. The substance according to Example 1 of the invention, dissolved in a solvent suitable for use in cell cultures, for instance water, diluted ethanol, dimethylsulfoxide or the like, was added in an increasing concentration to the culture medium, e.g. L-cycloserine (compound 16) or dehydrothreonine (compound 2) in a concentration range of 80 μM-5,000 μM; carbomethoxypropionyl cyanide (compound 13) in a range of 100 μM-300 μM. After four days of cultivation, the number of cells per bottle was counted. The results are shown in FIGS. 1 and 2, and a dose dependence of the proliferation inhibition compared to the control sample without addition of a compound according to the invention can be seen."}, "[1]": {"tested_on": "glycolysis of Novikoff-Zellen hepatoma cells", "test": "Inhibition of glycolysis of Novikoff cells (lactate produced for glucose consumed)", "assay_type": "cell-based"}}, "data": [{"compound": "N[C@H]1CONC1=O", "note": "[L-glycoserine, L-cycloserine]", "values": [{"measurement": "inhibition of tumor cell growth (proliferation inhibition, cell density)", "setting": "Novikoff hepatoma cells", "value": "dose-dependent inhibition of tumor cell growth"}]}, {"compound": "COC(=O)CCC(=O)C#N", "note": "[carbomethoxypropionyl cyanide]", "values": [{"measurement": "inhibition of glycolysis flow, lactate produced for glucose consumed", "setting": "[1]; FIG. 3", "value": "massively inhibits the glycolysis flow"}, {"measurement": "inhibition of glycolysis flow, lactate produced for glucose consumed", "setting": "[1]; FIG. 3, listed as CMPC", "value": "inhibition of glycolysis"}, {"measurement": "inhibition of tumor cell growth (proliferation inhibition, cell density)", "setting": "Novikoff hepatoma cells", "value": "dose-dependent inhibition of tumor cell growth"}]}]}
